Among the data in patent publication US20260274829A1, “NEW E3 UBIQUITIN LIGASE LIGAND, PROTEIN DEGRADATION AGENT AND USE THEREOF” (GLUETACS THERAPEUTICS (SHANGHAI) CO., LTD., priority 2023, published 2026) are IC50 values, retold here.

The target in the experiment is T1, human Cereblon WT GST-tagged protein (Homo sapiens, UniProt Q96SW2).
T1 construct: purchased CISBIO 64BDCRBNPEH
T1 sequence (Q96SW2 whole entry): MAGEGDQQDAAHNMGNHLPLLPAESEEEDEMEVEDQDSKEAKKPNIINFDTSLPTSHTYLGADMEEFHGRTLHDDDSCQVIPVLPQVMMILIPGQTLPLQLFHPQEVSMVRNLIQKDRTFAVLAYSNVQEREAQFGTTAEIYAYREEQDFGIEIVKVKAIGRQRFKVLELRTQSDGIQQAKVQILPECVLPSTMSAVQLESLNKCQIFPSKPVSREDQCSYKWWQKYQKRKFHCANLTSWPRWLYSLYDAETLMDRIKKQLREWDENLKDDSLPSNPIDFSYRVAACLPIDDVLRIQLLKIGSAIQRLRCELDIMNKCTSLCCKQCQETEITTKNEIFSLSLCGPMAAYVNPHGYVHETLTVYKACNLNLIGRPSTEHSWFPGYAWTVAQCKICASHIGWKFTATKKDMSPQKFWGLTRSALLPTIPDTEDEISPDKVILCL
The experiment can be described thus: CRBN binding, HTRF CEREBLON BINDING kit. To be noted: CRBN binding, HTRF CEREBLON BINDING kit. Here is the method:
The CEREBLON BINDING kits (specification: 10,000 tests; product number: Catalog #64BDCRBNPEH; CISBIO company) was used to determine the CRBN binding ability of the compounds to be tested through a HTRF method (homogeneous time-resolved fluorescence). The specific methods are as follows: • 1. […] Then, 2.5 μL of human Cereblon WT GST-tagged protein solution was added to each well. Finally, 5 μL of the thoroughly mixed Thalidomide-Re reagent and GST Eu antibody working solution were added to each of the aforementioned wells. […] The blank control wells were sequentially added with 2.5 μL of diluent #9 (1×) solution, 2.5 μL of binding buffer, and 5 μL of thoroughly mixed Thalidomide-Re reagent and GST Eu antibody working solution. • 4. After sealing and incubating the solutions in the aforementioned wells at room temperature for 3 hours, the absorbance values at emission wavelengths of 620 nm and 665 nm were detected by the HTRF method using a Spark microplate reader (V3.1 SP1).
The corresponding CRBN binding inhibition rate was calculated using the following method:
[formula] [formula] [formula] • Note: OD 665 nmcompound is the absorbance value of each well of the compounds to be tested of the present disclosure at an emission wavelength of 665 nm. • OD 620 nmcompound is the absorbance value of each well of the compounds to be tested of the present disclosure at an emission wavelength of 620 nm. • OD 665 nmcontrol is the absorbance value of the blank control well at an emission wavelength of 665 nm. • OD 620 nmcontrol is the absorbance value of the blank control well at an emission wavelength of 620 nm. • OD 665 nmStd0 is the absorbance value of the solvent control well at an emission wavelength of 665 nm. • OD 620 nmStd0 is the absorbance value of the solvent control well at an emission wavelength of 620 nm.
A word on the IC50: it is the midpoint of a concentration-inhibition curve. High values mean lower potency, low ones higher potency. In turn, `CNC(=O)c1ccc(N2C(=S)N(c3ccc(C#N)c(C(F)(F)F)c3)C(=O)C2(C)C)cc1F` [Enzalutamide] registered an IC50 above 10000 nM.

`COc1cc(N2CCC(N3CCN(Cc4cccc(N5CCC(=O)NC5=O)c4)CC3)CC2)c(C)cc1Nc1ncc(Br)c(Nc2ccc3nccnc3c2P(C)(C)=O)n1` [GT-04260, 1-(3-((4-(1-(4-((5-bromo-4-((5-(dimethylphosphoryl)quinoxalin-6-yl)amino)pyrimidin-2-yl)amino)-5-methoxy-2-methylphenyl)piperidin-4-yl)piperazin-1-yl)methyl)phenyl)dihydropyrimidine-2,4(1H,3H)-dione] showed an IC50 of 1000 to 1900 nM.

`COc1cc2nn(C3CCN(Cc4ccc(C5CCC(=O)NC5=O)cc4)CC3)cc2cc1NC(=O)c1cccc(C(F)(F)F)c1` (centres unmarked) [GT-04747, N-(2-(1-(4-(2,6-dioxopiperidin-3-yl)benzyl)piperidin-4-yl)-6-methoxy-2H-indazol-5-yl)-3-(trifluoromethyl)benzamide] registered an IC50 of 500 to 1000 nM.

In the case of `COc1cc2nn(C3CCN(Cc4ccc(C5CCC(=O)NC5=O)c(F)c4)CC3)cc2cc1NC(=O)c1cccc(C(F)(F)F)c1` (centres unmarked) [GT-04748, N-(2-(1-(4-(2,6-dioxopiperidin-3-yl)-3-fluorobenzyl)piperidin-4-yl)-6-methoxy-2H-indazol-5-yl)-3-(trifluoromethyl)benzamide], the half-maximal inhibitory concentration (IC50) fell in the range of 1000 to 1900 nM.

In turn, `COc1cc2nn(C3CCN(Cc4cccc(NC5CCC(=O)NC5=O)c4)CC3)cc2cc1NC(=O)c1cccc(C(F)(F)F)c1` (centres unmarked) [GT-04749, N-(2-(1-(3-((2,6-dioxopiperidin-3-yl)amino)benzyl)piperidin-4-yl)-6-methoxy-2H-indazol-5-yl)-3-(trifluoromethyl)benzamide] returned an IC50 of 1000 to 1900 nM.

In turn, `COc1cc2nn(C3CCN(Cc4cccc(N5CCC(=O)NC5=O)c4)CC3)cc2cc1NC(=O)c1cccc(C(F)(F)F)c1` [GT-04750, N-(2-(1-(3-(2,4-dioxotetrahydropyrimidin-1(2H)-yl)benzyl)piperidin-4-yl)-6-methoxy-2H-indazol-5-yl)-3-(trifluoromethyl)benzamide] displayed an IC50 of 1000 to 1900 nM.

On to `COc1cc2nn(C3CCN(Cc4ccc(N5CCC(=O)NC5=O)c(F)c4)CC3)cc2cc1NC(=O)c1cccc(C(F)(F)F)c1` [GT-04751, N-(2-(1-(4-(2,4-dioxotetrahydropyrimidin-1(2H)-yl)-3-fluorobenzyl)piperidin-4-yl)-6-methoxy-2H-indazol-5-yl)-3-(trifluoromethyl)benzamide], for which the IC50 lay within 1000 to 1900 nM.

The molecule `COc1cc2nn(C3CCN(Cc4ccc(N5CCC(=O)NC5=O)cc4)CC3)cc2cc1NC(=O)c1cccc(C(F)(F)F)c1` [GT-04752, N-(2-(1-(4-(2,4-dioxotetrahydropyrimidin-1(2H)-yl)benzyl)piperidin-4-yl)-6-methoxy-2H-indazol-5-yl)-3-(trifluoromethyl)benzamide] had an IC50 of 1000 to 1900 nM.

In the case of `COc1cc2nn(C3CCN(Cc4ccc(N5CCC(=O)NC5=O)cc4F)CC3)cc2cc1NC(=O)c1cccc(C(F)(F)F)c1` [GT-04753, N-(2-(1-(4-(2,4-dioxotetrahydropyrimidin-1(2H)-yl)-2-fluorobenzyl)piperidin-4-yl)-6-methoxy-2H-indazol-5-yl)-3-(trifluoromethyl)benzamide], the 50% inhibitory concentration (IC50) was in the range of 1000 to 1900 nM.

Take `COc1cc2nn(C3CCN(Cc4ccc(C5CCC(=O)NC5=O)cc4)CC3)cc2cc1NC(=O)c1cccc(C(F)(F)F)n1` (centres unmarked) [GT-04761, N-(2-(1-(4-(2,6-dioxopiperidin-3-yl)benzyl)piperidin-4-yl)-6-methoxy-2H-indazol-5-yl)-6-(trifluoromethyl)picolinamide]: the half-inhibitory concentration (IC50) lay within 500 to 1000 nM.

For the molecule `COc1cc2nn(C3CCN(Cc4ccc(C5CCC(=O)NC5=O)c(F)c4)CC3)cc2cc1NC(=O)c1cccc(C(F)(F)F)n1` (centres unmarked) [GT-04762, N-(2-(1-(4-(2,6-dioxopiperidin-3-yl)-3-fluorobenzyl)piperidin-4-yl)-6-methoxy-2H-indazol-5-yl)-6-(trifluoromethyl)picolinamide], the IC50 fell in the range of 1000 to 1900 nM.
